Laboratory results published in patent publication US20210181109A1 (FUJIFILM Corporation, priority 2018, published 2021).
Read-outs that look alike come from different tables or passages of the source.

Columns and labels:
[1] = NAL depletion percent, HPLC-UV detection (281 nm); details: Reference (UV method)
Method in brief: (§1)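 NAL (5 μmol/L, pH 10.2 phosphate buffer) reacted with test substance (1 mmol/L stock in water, acetonitrile, acetone or 5% DMSO/acetonitrile) for 24 h at 25 °C in the dark; stopped with TFA to 0.5%. Unreacted NAL quantified by HPLC (UV or fluorescence), n=3; depletion % relative to substance-free blank.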

[2] = Average score of NAC and NAL depletion and prediction of skin allergenicity, UV method
Method in brief: (§2)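 Score is the mean of NAC and NAL depletion percentages, rounded at the second decimal place. Test substances classed as allergenic (S) or non-allergenic (NS) from depletion of NAC, NAL, or their average score.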

[3] = NAC depletion percent, HPLC-fluorescence detection
Method in brief: (§3)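 NAC at 5 μmol/L in pH 8.0 phosphate buffer reacted with test substance (1 mmol/L stock in water, acetonitrile, acetone or 5% DMSO/acetonitrile) 24 h at 25 °C in the dark, n=3. Stopped with TFA (0.5% final); unreacted NAC quantified by HPLC, depletion percent calculated against blank without test substance.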

[4] = NAC depletion percent, HPLC-UV detection (281 nm); details: Reference (UV method)
Method in brief: as §3

[5] = NAL depletion percent, HPLC-fluorescence detection
Method in brief: as §1

[6] = Average score of NAC and NAL depletion and prediction of skin allergenicity, fluorescence method
Method in brief: as §2

[7] = cited from earlier work
[8] = single substance, test substance solution 1 mmol/L
[9] = single substance, test substance solution 1 mmol/L, Reference (UV method)
[10] = single substance, test substance solution 1 mmol/L, fluorescence method
[11] = single substance, Reference (UV method), criterion average score […]
[12] = single substance, fluorescence method, criterion average score […]
[13] = known values, LLNA-test-based classification, − for non-allergenic substances
[14] = Fluorescence method, non-allergenic substance

| Compound | NAL depletion (%) [1, 8] [%] | Prediction result [2] | Average score [2, 9] [%] | NAC depletion (%) [3, 10] [%] | NAC depletion (%) [4, 8] [%] | NAL depletion (%) [5, 10] [%] | Prediction result [6] | Average score [6, 10] [%] | EC3 (%) ([7]; in vivo) | Prediction result [2, 11] | Prediction result [6, 12] | EC3 (%) [7, 13] [%] | NAL depletion (%) ([1]; non-allergenic substance) | Prediction result ([2]; Reference (UV method), skin allergenicity prediction) | NAC depletion (%) [3, 14] [%] | NAC depletion (%) ([4]; non-allergenic substance) | NAL depletion (%) [5, 14] [%] | Prediction result ([6]; Fluorescence method, skin allergenicity prediction) | Average score [2] [%] | Average score [6] [%] |
| --- | --- | --- | --- | --- | --- | --- | --- | --- | --- | --- | --- | --- | --- | --- | --- | --- | --- | --- | --- | --- |
| O=CC=O [Glyoxal] | 0.8 | S (key: S represents as being an allergenic substance; NS represents as being a non-allergenic substance) | 6.8 | 24.9 | 12.8 | 0.4 | S (key: S represents as being an allergenic substance; NS represents as being a non-allergenic substance) | 12.7 | 1.4 | – | – | – | – | – | – | – | – | – | – | – |
| CC(CC=O)CCCC(C)(C)O (stereo not drawn) [Hydroxycitronellal] | 1.5 | – | 9.5 | 16.0 | 17.5 | 0.0 | – | 8.0 | – | S (S represents as being an allergenic substance) | S (S represents as being an allergenic substance) | 33 | – | – | – | – | – | – | – | – |
| CCCCCCCCCCCCOC(=O)c1cc(O)c(O)c(O)c1 [Lauryl gallate] | 19.0 | – | 59.5 | 99.5 | 100.0 | 15.9 | – | 57.7 | – | S (S represents as being an allergenic substance) | S (S represents as being an allergenic substance) | 0.3 | – | – | – | – | – | – | – | – |
| CCCCCCC#CC(=O)OC [Methyl 2-nonynoate] | 1.4 | – | 8.2 | 12.4 | 15.0 | 3.2 | – | 7.8 | – | S (S represents as being an allergenic substance) | S (S represents as being an allergenic substance) | 2.5 | – | – | – | – | – | – | – | – |
| CNc1ccc(O)cc1.CNc1ccc(O)cc1.O=S(=O)(O)O [Metol] | 22.8 | – | 61.4 | 100.0 | 100.0 | 15.9 | – | 57.9 | – | S (S represents as being an allergenic substance) | S (S represents as being an allergenic substance) | 0.8 | – | – | – | – | – | – | – | – |
| CCCCCCCCC(=O)O [Nonanoic acid] | – | – | – | – | – | – | – | – | – | – | – | 21 | 1.3 | NS (NS represents as being a non-allergenic substance) | 0.0 | 0.0 | 0.0 | NS (NS represents as being a non-allergenic substance) | – | – |
| CCCCCCCCC(=O)Cl [Nonanoyl chloride] | 39.4 | – | 23.4 | 8.9 | 7.4 | 54.5 | – | 31.7 | – | S (S represents as being an allergenic substance) | S (S represents as being an allergenic substance) | 1.8 | – | – | – | – | – | – | – | – |
| CCO/C=C1\N=C(c2ccccc2)OC1=O [Oxazolone] | 80.1 | S (key: S represents as being an allergenic substance; NS represents as being a non-allergenic substance) | – | 92.0 | 85.3 | 65.5 | S (key: S represents as being an allergenic substance; NS represents as being a non-allergenic substance) | – | 0.003 | – | – | – | – | – | – | – | – | – | 82.7 | 78.8 |
| CCCCCCCCCCCCCCCC(=O)Cl [Palmitoyl chloride] | 95.9 | – | 50.8 | 11.5 | 5.8 | 98.3 | – | 54.9 | – | S (S represents as being an allergenic substance) | S (S represents as being an allergenic substance) | 8.8 | – | – | – | – | – | – | – | – |
| C=C(C)C1CC=C(C=O)CC1 (stereo not drawn) [Perillaldehyde] | 18.5 | – | 23.8 | 42.4 | 29.1 | 7.1 | – | 24.7 | – | S (S represents as being an allergenic substance) | S (S represents as being an allergenic substance) | 8.1 | – | – | – | – | – | – | – | – |
| O=CCc1ccccc1 [Phenylacetaldehyde] | 98.3 | – | 60.3 | 9.5 | 22.4 | 96.2 | – | 52.9 | – | S (S represents as being an allergenic substance) | S (S represents as being an allergenic substance) | 3 | – | – | – | – | – | – | – | – |
| O=C1OC(=O)c2ccccc21 [Phthalic anhydride] | 96.9 | – | 48.6 | 0.3 | 0.3 | 92.6 | – | 46.4 | – | S (S represents as being an allergenic substance) | S (S represents as being an allergenic substance) | 0.16 | – | – | – | – | – | – | – | – |
| CCCOC(=O)c1cc(O)c(O)c(O)c1 [Propyl gallate] | 56.4 | – | 76.7 | 100.0 | 97.1 | 65.3 | – | 82.6 | – | S (S represents as being an allergenic substance) | S (S represents as being an allergenic substance) | 0.32 | – | – | – | – | – | – | – | – |
| O=c1c(O)c(O)c1=O [Squaric acid] | 0.5 | – | 0.6 | 1.0 | 0.8 | 0.1 | – | 0.5 | 4.3 | – | – | – | – | – | – | – | – | – | – | – |
| O=C(O)c1ccc2c(c1)C(=O)OC2=O [Trimellitic anhydride] | 97.0 | – | 49.4 | 0.8 | 1.9 | 94.2 | – | 47.5 | – | S (S represents as being an allergenic substance) | S (S represents as being an allergenic substance) | 0.6 | – | – | – | – | – | – | – | – |
| O=C1C=CC(=O)C=C1 [p-Benzoquinone] | 83.5 | – | 90.0 | 100.0 | 96.5 | 71.8 | S (key: S represents as being an allergenic substance; NS represents as being a non-allergenic substance) | 85.9 | – | S (S represents as being an allergenic substance) | – | 0.0099 | – | – | – | – | – | – | – | – |
| CCC/C=C/C=O [trans-2-Hexanal] | 12.3 | – | 46.3 | 97.9 | 80.4 | 11.4 | – | 54.6 | – | S (S represents as being an allergenic substance) | S (S represents as being an allergenic substance) | 5.5 | – | – | – | – | – | – | – | – |
| CCCCCC(C=O)=Cc1ccccc1 [α-Amylcinnamaldehyde] | 1.6 | – | 0.8 | 0.3 | 0.0 | 0.4 | – | 0.3 | – | NS (NS represents as being a non-allergenic substance) | NS (NS represents as being a non-allergenic substance) | 11 | – | – | – | – | – | – | – | – |
| CCCCCCC(C=O)=Cc1ccccc1 [α-Hexylcinnamaldehyde] | 1.1 | – | 0.6 | 0.0 | 0.0 | 0.0 | – | 0.0 | – | NS (NS represents as being a non-allergenic substance) | NS (NS represents as being a non-allergenic substance) | 11 | – | – | – | – | – | – | – | – |
| Fluorescein isothiocyanate | 98.1 | – | 85.8 | 81.3 | 73.6 | 97.6 | – | 89.4 | 0.14 | S (S represents as being an allergenic substance) | S (S represents as being an allergenic substance) | – | – | – | – | – | – | – | – | – |
| Kathon CG | −0.4 | – | 49.8 | 100.0 | 100.0 | 2.0 | – | 51.0 | 0.008 | – | – | – | – | – | – | – | – | – | – | – |
